Biological target: human orexin 2 receptor (Homo sapiens (Human), UniProt O43614)
Assay: Human orexin 2 receptor Ca2+ mobilization assay (FLIPR, PFSK cells, orexin B 100 nM)
Type: cell-based
Conditions: modified Cheng-Prusoff correction, read-out: OR 2 Kb

human orexin 2 receptor, sequence (O43614 whole entry): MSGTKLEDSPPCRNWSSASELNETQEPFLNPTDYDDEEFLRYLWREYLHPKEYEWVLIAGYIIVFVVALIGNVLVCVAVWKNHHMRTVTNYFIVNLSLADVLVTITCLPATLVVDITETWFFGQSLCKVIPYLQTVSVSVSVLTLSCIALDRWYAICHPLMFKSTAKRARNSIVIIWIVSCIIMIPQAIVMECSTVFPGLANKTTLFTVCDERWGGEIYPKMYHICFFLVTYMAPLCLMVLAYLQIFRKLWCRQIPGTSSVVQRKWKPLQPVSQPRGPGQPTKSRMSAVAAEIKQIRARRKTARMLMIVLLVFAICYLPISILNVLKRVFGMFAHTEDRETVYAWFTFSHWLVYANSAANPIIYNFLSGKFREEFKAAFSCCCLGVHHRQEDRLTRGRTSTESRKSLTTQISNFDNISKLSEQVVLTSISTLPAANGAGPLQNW

Row | Kb [nM] | Compound
1 | 7 | Cc1cc(C)nc(N2CC3CN(C(=O)c4ccc(F)cc4-c4ncccn4)CC3C2)n1 (stereo not drawn) [Example 231, (5-(4,6-Dimethylpyrimidin-2-yl)hexahydropyrrolo[3,4-c]pyrrol-2(1H)-yl)(4-fluoro-2-(pyrimidin-2-yl)phenyl)methanone]
2 | 7 | Cc1cc(C)nc(N2CC3CN(C(=O)c4cccc(F)c4I)CC3C2)n1 (stereo not drawn) [Example 232, (5-(4,6-Dimethylpyrimidin-2-yl)hexahydropyrrolo[3,4-c]pyrrol-2(1H)-yl)(3-fluoro-2-iodophenyl)methanone]
3 | 18 | Cc1cc(C)nc(N2CC3CN(C(=O)c4cccnc4-c4ccn[nH]4)CC3C2)n1 (stereo not drawn) [Example 237, (2-(1H-Pyrazol-5-yl)pyridin-3-yl)(5-(4,6-dimethylpyrimidin-2-yl)hexahydropyrrolo[3,4-c]pyrrol-2(1H)-yl)methanone]
4 | 4 | Cc1nc(N2CC3CN(C(=O)c4cccc(F)c4-c4ncccn4)CC3C2)nc(C)c1C (stereo not drawn) [Example 239, (3-Fluoro-2-(pyrimidin-2-yl)phenyl)(5-(4,5,6-trimethylpyrimidin-2-yl)hexahydropyrrolo[3,4-c]pyrrol-2(1H)-yl)methanone]
5 | 3 | Cc1nc(N2CC3CN(C(=O)c4cccc(F)c4-n4nccn4)CC3C2)nc(C)c1C (stereo not drawn) [Example 240, (3-Fluoro-2-(2H-1,2,3-triazol-2-yl)phenyl)(5-(4,5,6-trimethylpyrimidin-2-yl)hexahydropyrrolo[3,4-c]pyrrol-2(1H)-yl)methanone]
6 | 7 | COc1ccc(-n2nccn2)c(C(=O)N2CC3CN(c4nc(C)c(C)c(C)n4)CC3C2)c1 (stereo not drawn) [Example 241, (5-Methoxy-2-(2H-1,2,3-triazol-2-yl)phenyl)(5-(4,5,6-trimethylpyrimidin-2-yl)hexahydropyrrolo[3,4-c]pyrrol-2(1H)-yl)methanone]
7 | 13 | O=C(c1cccc(F)c1-n1nccn1)N1CC2CN(c3ncc4cc(F)ccc4n3)CC2C1 (stereo not drawn) [Example 242, (3-Fluoro-2-(2H-1,2,3-triazol-2-yl)phenyl)(5-(6-fluoroquinazolin-2-yl)hexahydropyrrolo[3,4-c]pyrrol-2(1H)-yl)methanone]
8 | 6 | O=C(c1cccc(F)c1-c1ncccn1)N1CC2CN(c3ncc4cc(F)ccc4n3)CC2C1 (stereo not drawn) [Example 243, (3-Fluoro-2-(pyrimidin-2-yl)phenyl)(5-(6-fluoroquinazolin-2-yl)hexahydropyrrolo[3,4-c]pyrrol-2(1H)-yl)methanone]
9 | 15 | COc1ccc(-n2nccn2)c(C(=O)N2CC3CN(c4cnc5cc(F)c(F)cc5n4)CC3C2)c1 (stereo not drawn) [Example 245, (5-(6,7-Difluoroquinoxalin-2-yl)hexahydropyrrolo[3,4-c]pyrrol-2(1H)-yl)(5-methoxy-2-(2H-1,2,3-triazol-2-yl)phenyl)methanone]
10 | 11 | O=C(c1c(F)cccc1-n1nccn1)N1CC2CN(c3cnc4cc(F)c(F)cc4n3)CC2C1 (stereo not drawn) [Example 246, (5-(6,7-Difluoroquinoxalin-2-yl)hexahydropyrrolo[3,4-c]pyrrol-2(1H)-yl)(2-fluoro-6-(2H-1,2,3-triazol-2-yl)phenyl)methanone]
11 | 7 | COc1ccc(C(=O)N2CC3CN(c4nc(C)cc(C)n4)CC3C2)c(-c2ncccn2)c1 (stereo not drawn) [Example 272, (5-(4,6-Dimethylpyrimidin-2-yl)hexahydropyrrolo[3,4-c]pyrrol-2(1H)-yl)(4-methoxy-2-(pyrimidin-2-yl)phenyl)methanone]
12 | 16 | Cc1cc(C)nc(N2CC3CN(C(=O)c4ccccc4OC(F)(F)F)CC3C2)n1 (stereo not drawn) [Example 274, (5-(4,6-Dimethylpyrimidin-2-yl)hexahydropyrrolo[3,4-c]pyrrol-2(1H)-yl)(2-(trifluoromethoxy)phenyl)methanone]
13 | 2 | Cc1cc(C)nc(N2CC3CN(C(=O)c4cccc(F)c4-c4ncccn4)CC3C2)n1 (stereo not drawn) [Example 283, 2-(4,6-Dimethylpyrimidin-2-yl)-5-[(3-fluoro-2-pyrimidin-2-ylphenyl)carbonyl]octahydropyrrolo[3,4-c]pyrrole]
14 | 2 | Cc1cc(C)nc(N2CC3CN(C(=O)c4cccc(F)c4-c4ccn[nH]4)CC3C2)n1 (stereo not drawn) [Example 284, 2-(4,6-Dimethylpyrimidin-2-yl)-5-{[3-fluoro-2-(1H-pyrazol-5-yl)phenyl]carbonyl}octahydropyrrolo[3,4-c]pyrrole]
15 | 7 | Cc1nc(N2CC3CN(C(=O)c4ccccc4-n4nccn4)CC3C2)ncc1F (stereo not drawn) [Example 290, 2-(5-Fluoro-4-methylpyrimidin-2-yl)-5-{[2-(2H-1,2,3-triazol-2-yl)phenyl]carbonyl}octahydropyrrolo[3,4-c]pyrrole]
16 | 13 | Cc1cc(C)nc(N2CC3CN(C(=O)c4ccccc4-c4nc(C)no4)CC3C2)n1 (stereo not drawn) [Example 306, 2-(4,6-Dimethylpyrimidin-2-yl)-5-{[2-(3-methyl-1,2,4-oxadiazol-5-yl)phenyl]carbonyl}octahydropyrrolo[3,4-c]pyrrole]
17 | 5 | Cc1cc(C)nc(N2CC3CN(C(=O)c4ccccc4-c4ncn(C)n4)CC3C2)n1 (stereo not drawn) [Example 308, 2-(4,6-Dimethylpyrimidin-2-yl)-5-{[2-(1-methyl-1H-1,2,4-triazol-3-yl)phenyl]carbonyl}octahydropyrrolo[3,4-c]pyrrole]
18 | 6 | Cc1noc(-c2ccccc2C(=O)N2CC3CN(c4nc(C)c(C)c(C)n4)CC3C2)n1 (stereo not drawn) [Example 309, 2-{[2-(3-Methyl-1,2,4-oxadiazol-5-yl)phenyl]carbonyl}-5-(4,5,6-trimethylpyrimidin-2-yl)octahydropyrrolo[3,4-c]pyrrole]
19 | 15 | Cc1noc(-c2ccccc2C(=O)N2CC3CN(c4ncc(F)c(C)n4)CC3C2)n1 (stereo not drawn) [Example 310, 2-(5-Fluoro-4-methylpyrimidin-2-yl)-5-{[2-(3-methyl-1,2,4-oxadiazol-5-yl)phenyl]carbonyl}octahydropyrrolo[3,4-c]pyrrole]
20 | 3 | Cc1nc(N2CC3CN(C(=O)c4ccccc4-c4ncn(C)n4)CC3C2)nc(C)c1C (stereo not drawn) [Example 311, 2-{[2-(1-Methyl-1H-1,2,4-triazol-3-yl)phenyl]carbonyl}-5-(4,5,6-trimethylpyrimidin-2-yl)octahydropyrrolo[3,4-c]pyrrole]
21 | 11 | Cc1nc(N2CC3CN(C(=O)c4ccccc4-c4ncn(C)n4)CC3C2)ncc1F (stereo not drawn) [Example 312, 2-(5-Fluoro-4-methylpyrimidin-2-yl)-5-{[2-(1-methyl-1H-1,2,4-triazol-3-yl)phenyl]carbonyl}octahydropyrrolo[3,4-c]pyrrole]
22 | 10 | Cc1cc(C)nc(N2CC3CN(C(=O)c4c(F)cccc4-c4nc(C)no4)CC3C2)n1 (stereo not drawn) [Example 315, 2-(4,6-Dimethylpyrimidin-2-yl)-5-{[2-fluoro-6-(3-methyl-1,2,4-oxadiazol-5-yl)phenyl]carbonyl}octahydropyrrolo[3,4-c]pyrrole]
23 | 3 | Cc1noc(-c2ccccc2C(=O)N2CC3CN(c4nc(C)c(Cl)c(C)n4)CC3C2)n1 (stereo not drawn) [Example 318, 2-(5-Chloro-4,6-dimethylpyrimidin-2-yl)-5-{[2-(3-methyl-1,2,4-oxadiazol-5-yl)phenyl]carbonyl}octahydropyrrolo[3,4-c]pyrrole]
24 | 7 | Cc1noc(-c2ccccc2C(=O)N2CC3CN(c4nc(C)c5c(n4)CCC5)CC3C2)n1 (stereo not drawn) [Example 319, 4-Methyl-2-[5-{[2-(3-methyl-1,2,4-oxadiazol-5-yl)phenyl]carbonyl}hexahydropyrrolo[3,4-c]pyrrol-2(1H)-yl]-6,7-dihydro-5H-cyclopenta[d]pyrimidine]
